{
  "source": "patent US4882314A",
  "about": "“A composition and method of treating selected malignant conditions” (priority 1987, dated 1989)",
  "key": {"W2K.11 cells": {"test_system": "W2K.11 cells", "assay": "SV40 test: inhibition of proliferation of SV40-transformed malignant cells", "assay_type": "cell-based, C3H mice", "settings": "Mus musculus, read-out: proliferation inhibition ratio", "protocol": "The SV40 (Simian Virus 40) method was adopted for determination of the carinostatic activity. According to this method, normal kidney cells of mice are transformed to malignant cells by the oncogenic virus SV40, the malignant cells are cultured, the test compound is added to the culture medium, the ratio of inhibition of proliferation of the cells is calculated and the carcinostatic activity is determined based on the calculated value. This method has recently been widely used because accurate results can be obtained [see proceedings of the Society for Experimental Biology and Medicine, 114, pages 721-727 (1963)].\nThe W2K.11 cells obtained by a malignant transformation of normal kidney cells of C3H mice by the oncogenic virus SV40 were used as cells for the test, and they were cultured according to the following method.\n(1) Preparation of Culture Medium:\n9.4 g of Eagle MEM Medium (manufactured by Nissui Seiyaku K.K.) was dissolved in 900 ml of distilled water and the solution was sterilized at 120° C., under pressure for 15 minutes. After cooling the sterilized solution, 100 ml of calf serum and 3 to 5 ml of a 10% aqueous solution of sodium hydrogencarbonate sterilized separately at 115° C. under pressure for 15 minutes were added to the solution to adjust the pH to 7.1 to 7.2. Just before the resulting culture medium was used, 10 ml of a L-glutamine solution (2.92 g/100 ml) filtered through A millipore filter was added thereto.\n(2) Preparation of Test Cells:\nThe frozen test cells preserved in a deep freezer (-80° C.) with dimethyl sulfoxide added to the above culture medium to a final concentration of 10% were […] at room temperature and subjected to centrifugal separation under 670×g for 5 minutes. The supernatant was discarded and the precipitated cells were suspended in 50 ml of the culture medium. Then, the culture medium was transferred to a Roux flask and culturing was conducted at 37° C. The cells began to grow while adhering to the bottom of the flask, and sufficient growth was obtained in 3 to 4 days. […]"}, "[1]": {"assay": "acute toxicity, oral administration or subcutaneous injection in mice", "assay_type": "in vivo", "settings": "mouse, in vivo; oral administration in mice", "protocol": "(§1) The LD50 (mg/kg) value of the compound which is the active ingredient of the present invention, for example, in case of oral administration in mice is about 3000 mg/kg."}, "mice": {"test_system": "mice", "assay": "acute toxicity, oral administration or subcutaneous injection in mice", "assay_type": "in vivo", "settings": "subcutaneous injection or oral administration in mice", "protocol": "as §1"}, "[2]": {"assay": "toxicity / side effects on continuous administration", "assay_type": "in vivo"}, "colon carcinoma": {"test_system": "colon carcinoma", "assay": "Experiment 2: clinical treatment of colon carcinoma with metastatic cancer in the liver", "assay_type": "in vivo, human", "protocol": "Person, colon carcinoma with metastatic cancer of 13 cm×10 cm×8 cm in the liver, abdominal dropsy observed.\nThe patient was subjected to abdominal surgery on June 4, 1979 but extraction of the cancer was impossible and the incised abdoment was immediately sutured.\nAdministration of 4,6-O-benzylidene-D-glucopyranose at a dosage of 20 mg/day/man (in the form of a physiological saline solution having an active ingredient concentration of 4 mg/ml) by intraperitoneal injection was stated on Aug. 25, 1979. The preparation for injection was prepared according to Example 1. In about one month, the abdominal dropsy disappeared, appetite improved and the overall body condition improved.\nA C.T. scan of the liver of the patient before the start of the intraperitoneal injection, that was taken on Aug. 25, 1979, is shown in FIG. 1-A (the metastic lesion (A) appears on the left-side of the tomogram), and a C.T. scan of the same region taken on Dec."}, "tongue cancer": {"test_system": "tongue cancer", "assay": "Experiment 3: clinical treatment of tongue cancer", "assay_type": "in vivo, human"}, "[3]": {"test_system": "peritonitis cartinimatosa", "assay": "Experiment 4: clinical treatment of peritonitis carcinomatosa", "assay_type": "in vivo, human", "settings": "200 mg/day/man intravenous infusion", "protocol": "Administration of 4,6-O-benzylidene-D-glucopyranose at a dosage of 200 mg/day/man by intravenous infusion was started for the treatment of the patient."}, "primary liver tumor": {"test_system": "primary liver tumor", "assay": "Experiment 5: clinical treatment of primary liver tumor", "assay_type": "in vivo, human", "settings": "200 mg/day/man intravenous infusion", "protocol": "4,6-O-benzylidene-D-glucopyranose was continuously administered at a dosage of 200 mg/day/man by intravenous infusion."}, "stomach cancer": {"test_system": "stomach cancer", "assay": "Experiment 6: clinical treatment of stomach cancer", "assay_type": "in vivo, human", "settings": "200 mg/day/man intravenous infusion", "protocol": "Patient: Stomach cancer of the terminal stage, the stomach extracted but many metastasized lesion in abdominal cavity, peritonitis cartinimatosa observed. […] The preparation for infusion was prepared according to Example 1. […] However, the patient died about 3 months after the start of administration."}, "[4]": {"test_system": "colon carcinoma, tongue cancer, peritonitis carcinomatosa, liver cancer and stomach cancer", "assay": "clinical experiments, summary statement", "assay_type": "in vivo, human", "settings": "intravenous, about 20 to about 200 mg/day/man"}, "[5]": {"assay": "stability and solubility, general statement", "assay_type": "physicochemical"}, "[6]": {"settings": "20 mg/day/man intraperitoneal injection, about 3 months"}, "[7]": {"settings": "20 mg/day/man intraperitoneal injection, about one month"}, "[8]": {"settings": "200 mg/day/man intravenous infusion, after 10 days"}},
  "data": [
    {"smiles": "OC1O[C@@H]2COC(c3ccccc3)O[C@H]2[C@H](O)[C@H]1O", "note": "(stereo partly drawn) [4,6-O-benzylidene-D-glucopyranose]", "values": [
      {"measurement": "inhibition at 125 µg/mL", "setting": "W2K.11 cells; 72 h, 125 mcg/ml", "value": 23, "unit": "%"},
      {"measurement": "inhibition at 250 µg/mL", "setting": "W2K.11 cells; 72 h, 250 mcg/ml", "value": 37, "unit": "%"},
      {"measurement": "inhibition at 500 µg/mL", "setting": "W2K.11 cells; 500 mcg/ml, 72 hours of treatment", "value": 72, "unit": "%"},
      {"measurement": "LD50", "setting": "[1]", "value": "~3000", "unit": "mg/kg"},
      {"measurement": "acute toxicity compared with other carcinostatic agents", "setting": "mice", "value": "much lower than that of other carinostatic agents"},
      {"measurement": "toxicity", "setting": "[2]; continuous administration at the above-mentioned dosage", "value": "no toxicity is observed"},
      {"measurement": "toxicity, general statement", "setting": "[2]; in vivo", "value": "lowly toxic"},
      {"measurement": "excretion from a living body", "setting": "[2]; when administered", "value": "readily excreted from a living body"},
      {"measurement": "side effects", "setting": "[2]; when administered", "value": "no side effects are caused"},
      {"measurement": "CEA unit value (the hepatic function test)", "setting": "colon carcinoma; [6]", "value": "remarkably reduced"},
      {"measurement": "metastatic lesion in the liver", "setting": "colon carcinoma; [6]", "value": "almost disappeared"},
      {"measurement": "metastatic lesion in the liver", "setting": "colon carcinoma; 20 mg/day/man intraperitoneal injection, about 4 months, C.T. scan FIG. 1-A vs FIG. 1-B", "value": "completely disappeared"},
      {"measurement": "abdominal dropsy", "setting": "colon carcinoma; [7]", "value": "disappeared"},
      {"measurement": "appetite", "setting": "colon carcinoma; [7]", "value": "improved"},
      {"measurement": "metastatic lesion in the liver (C.T. scan)", "setting": "colon carcinoma; [7]", "value": "contraction of the metastatic lesion in the liver had started"},
      {"measurement": "overall body condition", "setting": "colon carcinoma; [7]", "value": "improved"},
      {"measurement": "patient outcome", "setting": "colon carcinoma; after treatment, 20 mg/day/man intraperitoneal injection", "value": "has lead a normal life since then"},
      {"measurement": "histopathology of the granular substance released from the submaxillar tumor", "setting": "tongue cancer; 200 mg/day/man intravenous infusion", "value": "composed of histopathologically keratinized squamous cells"},
      {"measurement": "malignant lesion of the tongue (photographs FIGS. 2-A, 3-A vs 2-B, 3-B)", "setting": "tongue cancer; 200 mg/day/man intravenous infusion, Oct. 15 to Nov. 19, 1979", "value": "disappeared"},
      {"measurement": "submaxillar tumor", "setting": "tongue cancer; [8]", "value": "softened and began to release a granular substance"},
      {"measurement": "tumor on the tongue", "setting": "tongue cancer; [8]", "value": "began to disappear"},
      {"measurement": "patient outcome", "setting": "tongue cancer; 200 mg/day/man intravenous infusion, terminal stage", "value": "died after about one month of treatment"},
      {"measurement": "patient outcome", "setting": "[3]", "value": "died of paritonitis periforative about one month after the start of treatment"},
      {"measurement": "abdominal dropsy", "setting": "[3]; one week", "value": "disappeared"},
      {"measurement": "cancer metastasized to the skin", "setting": "[3]; one week", "value": "contraction of the cancer metastasized to the skin"},
      {"measurement": "condition of the disease", "setting": "[3]; one week", "value": "subjective and objective improvements"},
      {"measurement": "abdominal dropsy", "setting": "primary liver tumor; about one month", "value": "reduction in the abdominal dropsy"},
      {"measurement": "liver tumor", "setting": "primary liver tumor; about one month", "value": "prominent contraction of the liver tumor"},
      {"measurement": "patient outcome", "setting": "primary liver tumor; terminal stage", "value": "died after about four months of treatment"},
      {"measurement": "abdominal dropsy", "setting": "stomach cancer; one month", "value": "disappeared"},
      {"measurement": "subjective symptoms", "setting": "stomach cancer; one month", "value": "remarkable improvement"},
      {"measurement": "time to death after start of administration", "setting": "stomach cancer; terminal stage", "value": "about 3 months"},
      {"measurement": "clinical effect", "setting": "[4]", "value": "prominent effect"},
      {"measurement": "stability", "setting": "[5]", "value": "very stable"},
      {"measurement": "water solubility", "setting": "[5]", "value": "water-soluble"}
    ]},
    {"smiles": "O=c1[nH]c(=O)n(C2CCCO2)cc1F", "note": "(stereo not shown) [FT 207, reference compound]", "values": [
      {"measurement": "effect of prior treatment", "setting": "colon carcinoma; FT 207 treatment with cobalt 60 radiotherapy, initiated before the operation", "value": "no effect had been observed"}
    ]},
    {"smiles": "N#C[C@H](O[C@@H]1O[C@H](CO[C@@H]2O[C@H](CO)[C@@H](O)[C@H](O)[C@H]2O)[C@@H](O)[C@H](O)[C@H]1O)c1ccccc1", "note": "[laetrile, amygdalin, reference compound]", "values": [
      {"measurement": "effect of prior treatment", "setting": "tongue cancer; prior conventional chemotherapy, BCG, radiotherapy and laetrile", "value": "no effect could be observed"}
    ]}
  ]
}
